≈ marks a conversion by molar mass, not a printed value.

For orientation: logD means lipophilicity at a set pH, counting ionised and neutral species. Read a low logD as a more hydrophilic compound. As usually defined, the solubility (kinetic) is the concentration staying in solution when a stock, usually in DMSO, is diluted into the medium. A word on the IC50: it is the concentration that gives 50% inhibition. A high value points to weaker potency in that assay.

Data set [1] is described as follows: Lipophilicity, logD of compound at pH 7.4 by HPLC-MS analysis. As to conditions: buffer.
Data set [2] can be described thus: Solubility of compound by CLND method. Type of data set: physicochemical.
For data set [3], the target named is Phosphatidylinositol 4,5-bisphosphate 3-kinase catalytic subunit alpha isoform (Homo sapiens, UniProt P42336).
Description: Inhibition of PI3Kalpha (unknown origin) using biotin-PIP3 as substrate preincubated for 15 mins followed by substrate addition and measured after 60 mins by fluorescence polarization assay
Data set [4] deals with Phosphatidylinositol 4,5-bisphosphate 3-kinase catalytic subunit gamma isoform (Homo sapiens, UniProt P48736).
Description: Inhibition of PI3Kgamma (unknown origin) using biotin-PIP3 as substrate preincubated for 15 mins followed by substrate addition and measured after 60 mins by fluorescence polarization assay
The target in another data set is Albumin (Homo sapiens, UniProt P02768). Description: Binding affinity to human serum albumin by HPLC analysis. Type of data set: ADME. As to conditions: isolated protein.
Data set [5] deals with Phosphatidylinositol 4,5-bisphosphate 3-kinase catalytic subunit beta isoform (Homo sapiens, UniProt P42338). Briefly: Inhibition of PI3Kbeta (unknown origin) using biotin-PIP3 as substrate preincubated for 15 mins followed by substrate addition and measured after 60 mins by fluorescence polarization assay. (In general: Polarisation of emitted light reports the rotation of a fluorescent probe.)

Data set [6] concerns the target T1, Phosphatidylinositol 4,5-bisphosphate 3-kinase catalytic subunit delta isoform (Homo sapiens, UniProt O00329).
T1 sequence (O00329 whole entry): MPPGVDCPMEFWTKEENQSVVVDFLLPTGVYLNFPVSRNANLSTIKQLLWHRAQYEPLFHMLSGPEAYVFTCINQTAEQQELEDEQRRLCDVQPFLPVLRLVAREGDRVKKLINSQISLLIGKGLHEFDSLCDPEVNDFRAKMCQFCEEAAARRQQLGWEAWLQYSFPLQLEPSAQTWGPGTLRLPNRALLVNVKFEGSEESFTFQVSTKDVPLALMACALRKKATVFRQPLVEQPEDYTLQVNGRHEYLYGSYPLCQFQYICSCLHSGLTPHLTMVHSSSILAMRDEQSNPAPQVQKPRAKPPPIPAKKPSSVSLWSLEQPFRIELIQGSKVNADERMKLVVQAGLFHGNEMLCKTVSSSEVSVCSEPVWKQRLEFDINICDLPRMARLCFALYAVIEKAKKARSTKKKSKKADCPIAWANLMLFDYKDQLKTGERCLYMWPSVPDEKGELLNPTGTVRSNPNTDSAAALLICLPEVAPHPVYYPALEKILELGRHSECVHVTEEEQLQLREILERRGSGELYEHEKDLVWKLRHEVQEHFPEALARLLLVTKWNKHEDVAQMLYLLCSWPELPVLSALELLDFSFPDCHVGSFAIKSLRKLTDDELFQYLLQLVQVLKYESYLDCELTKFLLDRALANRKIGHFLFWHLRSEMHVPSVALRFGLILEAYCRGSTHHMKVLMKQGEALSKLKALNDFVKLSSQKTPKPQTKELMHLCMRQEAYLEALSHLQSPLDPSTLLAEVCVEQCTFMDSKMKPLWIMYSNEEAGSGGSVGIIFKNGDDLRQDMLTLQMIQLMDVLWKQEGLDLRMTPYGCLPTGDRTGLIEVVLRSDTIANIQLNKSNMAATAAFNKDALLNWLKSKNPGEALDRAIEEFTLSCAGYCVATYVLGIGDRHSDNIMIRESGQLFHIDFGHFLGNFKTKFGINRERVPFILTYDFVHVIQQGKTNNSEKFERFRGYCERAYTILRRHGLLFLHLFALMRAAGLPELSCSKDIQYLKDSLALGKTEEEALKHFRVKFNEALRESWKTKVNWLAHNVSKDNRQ
Description: Inhibition of PI3Kdelta (unknown origin) using biotin-PIP3 as substrate preincubated for 15 mins followed by substrate addition and measured after 60 mins by fluorescence polarization assay

Chain of Phosphatidylinositol 4,5-bisphosphate 3-kinase catalytic subunit alpha isoform (P42336 whole entry, canonical isoform): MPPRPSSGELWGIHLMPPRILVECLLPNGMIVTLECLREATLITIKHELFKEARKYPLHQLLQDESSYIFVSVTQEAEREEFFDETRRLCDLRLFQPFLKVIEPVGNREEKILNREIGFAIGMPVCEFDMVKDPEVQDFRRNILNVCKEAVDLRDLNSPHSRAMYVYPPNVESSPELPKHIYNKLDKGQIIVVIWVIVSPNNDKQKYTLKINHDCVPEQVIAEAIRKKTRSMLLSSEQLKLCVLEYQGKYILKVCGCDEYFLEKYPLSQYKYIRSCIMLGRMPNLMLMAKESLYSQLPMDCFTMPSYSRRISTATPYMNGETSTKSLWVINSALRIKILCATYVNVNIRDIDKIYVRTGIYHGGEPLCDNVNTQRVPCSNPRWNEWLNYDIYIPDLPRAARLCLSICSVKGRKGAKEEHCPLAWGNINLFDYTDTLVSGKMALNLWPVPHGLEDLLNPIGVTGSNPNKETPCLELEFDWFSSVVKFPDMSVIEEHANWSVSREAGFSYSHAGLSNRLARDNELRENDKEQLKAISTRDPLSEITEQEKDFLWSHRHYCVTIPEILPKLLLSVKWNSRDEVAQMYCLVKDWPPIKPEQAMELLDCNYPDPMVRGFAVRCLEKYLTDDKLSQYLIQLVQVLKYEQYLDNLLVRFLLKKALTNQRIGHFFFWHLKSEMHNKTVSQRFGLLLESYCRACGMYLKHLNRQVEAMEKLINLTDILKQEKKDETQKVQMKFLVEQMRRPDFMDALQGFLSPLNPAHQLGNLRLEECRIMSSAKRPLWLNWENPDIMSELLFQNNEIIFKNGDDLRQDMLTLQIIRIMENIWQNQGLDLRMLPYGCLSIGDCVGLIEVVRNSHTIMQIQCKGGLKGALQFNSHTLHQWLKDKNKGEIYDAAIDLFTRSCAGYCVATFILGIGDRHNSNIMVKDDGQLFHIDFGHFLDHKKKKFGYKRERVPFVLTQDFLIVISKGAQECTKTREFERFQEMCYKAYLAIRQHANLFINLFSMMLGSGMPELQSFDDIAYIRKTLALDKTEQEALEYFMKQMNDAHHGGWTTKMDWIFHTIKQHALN
Chain of Phosphatidylinositol 4,5-bisphosphate 3-kinase catalytic subunit gamma isoform (P48736 whole entry, canonical isoform): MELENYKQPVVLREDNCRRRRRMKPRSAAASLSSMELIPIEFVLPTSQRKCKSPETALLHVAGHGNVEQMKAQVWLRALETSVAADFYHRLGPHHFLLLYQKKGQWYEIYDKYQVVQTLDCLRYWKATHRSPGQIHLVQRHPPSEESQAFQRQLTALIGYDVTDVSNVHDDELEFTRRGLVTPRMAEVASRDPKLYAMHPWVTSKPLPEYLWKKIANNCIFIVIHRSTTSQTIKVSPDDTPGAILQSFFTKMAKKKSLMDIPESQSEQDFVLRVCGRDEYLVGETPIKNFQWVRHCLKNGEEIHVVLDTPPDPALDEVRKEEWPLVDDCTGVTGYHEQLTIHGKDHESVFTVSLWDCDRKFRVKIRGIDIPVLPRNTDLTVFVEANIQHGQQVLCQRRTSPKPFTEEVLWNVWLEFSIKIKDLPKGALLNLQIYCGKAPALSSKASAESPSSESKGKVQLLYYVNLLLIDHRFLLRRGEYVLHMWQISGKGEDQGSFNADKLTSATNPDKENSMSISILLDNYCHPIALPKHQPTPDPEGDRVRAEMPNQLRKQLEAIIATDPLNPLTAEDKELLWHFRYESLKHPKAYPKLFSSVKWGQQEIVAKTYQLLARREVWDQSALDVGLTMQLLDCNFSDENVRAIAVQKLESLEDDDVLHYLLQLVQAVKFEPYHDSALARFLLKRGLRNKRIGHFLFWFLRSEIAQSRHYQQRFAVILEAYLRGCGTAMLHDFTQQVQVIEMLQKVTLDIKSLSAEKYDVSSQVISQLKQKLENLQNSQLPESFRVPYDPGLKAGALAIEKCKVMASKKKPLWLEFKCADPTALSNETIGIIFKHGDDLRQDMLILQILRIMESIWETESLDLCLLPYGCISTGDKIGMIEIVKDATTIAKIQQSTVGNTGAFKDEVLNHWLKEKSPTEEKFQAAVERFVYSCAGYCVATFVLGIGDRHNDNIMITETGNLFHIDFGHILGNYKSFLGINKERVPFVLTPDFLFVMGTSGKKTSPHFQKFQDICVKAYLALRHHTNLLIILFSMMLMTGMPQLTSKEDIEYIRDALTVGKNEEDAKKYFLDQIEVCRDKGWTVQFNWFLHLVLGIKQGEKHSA
Chain of Phosphatidylinositol 4,5-bisphosphate 3-kinase catalytic subunit beta isoform (P42338 whole entry, canonical isoform): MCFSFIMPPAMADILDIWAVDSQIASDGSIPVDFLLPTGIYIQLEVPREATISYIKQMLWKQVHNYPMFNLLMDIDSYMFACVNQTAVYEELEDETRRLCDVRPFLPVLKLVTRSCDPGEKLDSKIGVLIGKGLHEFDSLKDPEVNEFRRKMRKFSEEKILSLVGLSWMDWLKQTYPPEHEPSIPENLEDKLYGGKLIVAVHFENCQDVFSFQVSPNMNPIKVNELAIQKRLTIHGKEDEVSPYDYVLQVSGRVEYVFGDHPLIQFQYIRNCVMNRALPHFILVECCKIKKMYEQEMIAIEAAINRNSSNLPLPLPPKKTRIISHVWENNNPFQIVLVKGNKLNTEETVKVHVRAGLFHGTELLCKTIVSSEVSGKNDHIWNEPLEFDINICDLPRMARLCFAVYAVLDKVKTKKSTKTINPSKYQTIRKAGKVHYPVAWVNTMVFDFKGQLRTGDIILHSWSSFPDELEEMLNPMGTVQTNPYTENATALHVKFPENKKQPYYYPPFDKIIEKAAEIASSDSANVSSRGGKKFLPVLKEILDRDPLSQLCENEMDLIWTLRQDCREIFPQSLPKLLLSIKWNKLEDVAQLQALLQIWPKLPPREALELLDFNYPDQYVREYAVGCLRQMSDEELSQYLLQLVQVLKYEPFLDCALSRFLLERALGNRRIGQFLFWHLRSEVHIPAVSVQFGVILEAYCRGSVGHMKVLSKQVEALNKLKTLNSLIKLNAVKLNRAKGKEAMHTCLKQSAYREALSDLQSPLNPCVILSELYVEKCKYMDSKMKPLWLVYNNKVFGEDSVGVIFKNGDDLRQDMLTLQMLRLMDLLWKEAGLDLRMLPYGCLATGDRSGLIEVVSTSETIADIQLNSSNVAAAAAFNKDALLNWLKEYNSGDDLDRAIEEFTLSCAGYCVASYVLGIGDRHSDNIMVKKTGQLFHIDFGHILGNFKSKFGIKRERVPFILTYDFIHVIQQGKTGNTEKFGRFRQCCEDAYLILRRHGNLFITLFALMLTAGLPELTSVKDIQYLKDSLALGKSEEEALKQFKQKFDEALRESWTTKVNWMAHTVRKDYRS
Chain of Albumin (P02768 whole entry, canonical isoform): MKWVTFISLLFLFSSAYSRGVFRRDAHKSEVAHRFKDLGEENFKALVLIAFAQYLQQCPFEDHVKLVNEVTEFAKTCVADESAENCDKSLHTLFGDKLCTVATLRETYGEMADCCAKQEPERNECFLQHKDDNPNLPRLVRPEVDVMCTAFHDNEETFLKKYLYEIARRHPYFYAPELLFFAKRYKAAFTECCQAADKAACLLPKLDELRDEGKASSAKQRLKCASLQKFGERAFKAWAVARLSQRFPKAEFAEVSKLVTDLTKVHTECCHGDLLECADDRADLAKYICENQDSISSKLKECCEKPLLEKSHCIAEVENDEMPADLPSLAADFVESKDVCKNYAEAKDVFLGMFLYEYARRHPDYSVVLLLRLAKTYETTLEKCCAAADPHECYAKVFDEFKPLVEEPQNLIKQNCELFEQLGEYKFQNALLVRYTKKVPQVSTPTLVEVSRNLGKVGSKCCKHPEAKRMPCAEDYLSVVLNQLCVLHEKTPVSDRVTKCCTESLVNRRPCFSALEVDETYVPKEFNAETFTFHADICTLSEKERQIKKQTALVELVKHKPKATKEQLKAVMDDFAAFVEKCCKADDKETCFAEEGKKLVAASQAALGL

`COCC(=O)N(C)C1CCN(Cc2cc3nc(-c4cnc(N)nc4)nc(N4CCOCC4)c3s2)C1` (racemic) came in with a logD in data set [1] of 2.7. In data set [2], the kinetic solubility is at least 2720 µM. The IC50 in data set [3] was 0.0158 µM; in data set [4], 0.00794 µM; in data set [5], 0.251 µM; in data set [6], 0.00631 µM. Moreover, the Activity at Albumin was found to be 81.2%.

In the case of `COCC(=O)N(C)C1CCCN(Cc2cc3nc(-c4cccc5[nH]ccc45)nc(N4CCOCC4)c3s2)C1` (racemic), in data set [1], the logD was 4.8. In data set [2], this compound yielded a solubility (kinetic) of 85 µM (≈ 45.4 µg/mL). Moreover, the IC50 in data set [3] is 3.16 µM; in data set [4] it was 2 µM; in data set [5], 3.16 µM; in data set [6] it was 0.02 µM. The compound also yielded an Activity on Albumin of 95.2%.

The compound `COCC(=O)N(C)C1CCN(Cc2cc3nc(-c4cccc5[nH]ccc45)nc(N4CCOCC4)c3s2)C1` (racemic) returned a kinetic solubility in data set [2] of 179 µM (≈ 93.2 µg/mL). Further, the concentration for half-maximal inhibition (IC50) is 3.98 µM in data set [3], 1 µM in data set [4], 2.51 µM in data set [5] and 0.01 µM in data set [6]. Also, the Activity on Albumin was determined as 94.1%.

`CC(=O)N(C)C1CCN(Cc2cc3nc(-c4cccc5[nH]ccc45)nc(N4CCOCC4)c3s2)C1` (racemic): the logD in data set [1] was determined as 4.5. For the same compound, the kinetic solubility in data set [2] was 251 µM (≈ 123 µg/mL). For the same compound, the IC50 in data set [3] is 0.794 µM; in data set [4], 0.631 µM; in data set [5] it was 0.501 µM; in data set [6], 0.00631 µM. The compound further returned an Activity at Albumin of 94.4%.

In data set [1], `CN(C1CCCN(Cc2cc3nc(-c4cccc5[nH]ccc45)nc(N4CCOCC4)c3s2)C1)S(C)(=O)=O` (racemic) had a logD of 5.5. The IC50 was 0.794 µM in data set [3], 0.501 µM in data set [4], 1.58 µM in data set [5] and 0.00631 µM in data set [6]. For the same compound, the Activity at Albumin is 95.6%.

The compound `CS(=O)(=O)NC1CCN(Cc2cc3nc(-c4cnc(N)nc4)nc(N4CCOCC4)c3s2)C1` (racemic) displayed a logD in data set [1] of 2.4. In addition, in data set [2], the solubility (kinetic) is at least 491 µM. Moreover, the IC50 is 0.01 µM in data set [3], 0.02 µM in data set [4], 0.158 µM in data set [5] and 0.0126 µM in data set [6]. The compound also gave an Activity at Albumin of 80.9%.

With `CN(C1CCN(Cc2cc3nc(-c4cnc(N)nc4)nc(N4CCOCC4)c3s2)CC1)S(C)(=O)=O`, in data set [1], the logD was found to be 3.3. In data set [2], the kinetic solubility was found to be 118 µM (≈ 61.2 µg/mL). Also, the IC50 in data set [3] is 0.0158 µM; in data set [4], 0.0251 µM; in data set [5], 0.251 µM; in data set [6], 0.00794 µM. In addition, the Activity at Albumin is 87.8%.

For `COCC(=O)N(C)C1CCN(Cc2cc3nc(-c4cccc5[nH]ccc45)nc(N4CCOCC4)c3s2)CC1`, in data set [1], the logD is 4.6. This compound showed a solubility (kinetic) in data set [2] of 238 µM (≈ 127 µg/mL). Also, the IC50 is 10 µM in data set [3], 1 µM in data set [5] and 0.0126 µM in data set [6]. The Activity at Albumin is given as 94.3%.

As to `CC(=O)N(C)C1CCN(Cc2cc3nc(-c4cccc5[nH]ccc45)nc(N4CCOCC4)c3s2)CC1`, the logD in data set [1] is 4.4. For the same compound, the IC50 in data set [3] is 3.16 µM; in data set [5], 2 µM; in data set [6], 0.0126 µM. For the same compound, the Activity at Albumin is 94.5%.

With `COCC(=O)N(C)C1CCN(Cc2cc3nc(-c4cnc(N)nc4)nc(N4CCOCC4)c3s2)CC1`, the logD in data set [1] turned out to be 2.7. In addition, the IC50 in data set [3] was 0.126 µM; in data set [4], 0.126 µM; in data set [5] it was 0.631 µM; in data set [6], 0.0158 µM.

With `COCC(=O)N(C)C1CCCN(Cc2cc3nc(-c4cnc(N)nc4)nc(N4CCOCC4)c3s2)C1` (racemic), the pH-dependent lipophilicity (logD) in data set [1] was determined as 2.8. For the same compound, the IC50 in data set [3] was 0.1 µM; in data set [4], 0.126 µM; in data set [5], 1.58 µM; in data set [6] it was 0.0501 µM.

For the compound `CS(=O)(=O)NC1CCCN(Cc2cc3nc(-c4cccc5[nH]ccc45)nc(N4CCOCC4)c3s2)C1` (racemic), the logD in data set [1] worked out at 5. Besides, the IC50 in data set [3] is 1.58 µM; in data set [4], 1 µM; in data set [5], 1.26 µM; in data set [6], 0.0251 µM.

(Values after ChEMBL document CHEMBL4414631 (J Med Chem, 2019).)
